ChEMBL document CHEMBL3301562, “MMV Box screening against Plasmodium falciparum protein kinases and aminoacyl tRNA synthetases”

How the values were obtained:
Format in all cases: functional
[1] = target: T1, Mitogen-activated protein kinase (Plasmodium falciparum, UniProt Q25917); assay: Final concentrations were 1 uM ATP, 0.5 mM DTT, 1 mM MgCl2, 0.5 mg/mL BSA, and 10 ug/ml MAP2 in a buffer of 50 mM HEPES (pH 7.0). 0.5 mg/mL histone III-S served as the substrate (13); 100 uM AMP-PNP, an ATP analog, was used as a control inhibitor. Incubation time was 4 hours.
T1 sequence (Q25917 whole entry): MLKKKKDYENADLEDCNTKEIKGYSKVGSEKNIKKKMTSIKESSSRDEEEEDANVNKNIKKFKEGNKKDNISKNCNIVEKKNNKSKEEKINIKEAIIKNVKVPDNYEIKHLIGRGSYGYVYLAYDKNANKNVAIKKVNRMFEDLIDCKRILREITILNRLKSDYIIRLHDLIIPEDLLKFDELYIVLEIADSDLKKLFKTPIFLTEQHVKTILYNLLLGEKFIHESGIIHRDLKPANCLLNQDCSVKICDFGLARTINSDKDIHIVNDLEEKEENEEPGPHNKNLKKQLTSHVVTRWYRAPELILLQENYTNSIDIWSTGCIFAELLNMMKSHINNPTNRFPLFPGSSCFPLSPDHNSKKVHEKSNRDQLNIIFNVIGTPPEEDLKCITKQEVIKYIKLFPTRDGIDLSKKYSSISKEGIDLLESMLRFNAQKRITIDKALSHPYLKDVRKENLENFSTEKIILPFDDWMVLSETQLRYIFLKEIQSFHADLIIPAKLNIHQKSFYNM

[2] = target: Calcium-dependent protein kinase 1 (Plasmodium falciparum, UniProt P62344); assay: MMV: CDPK1 Protein kinase inhibition assay using recombinant PfCDPK1, syntide 2 peptide substrate, ATP and KinaseGlo to measure % inhibition at 1 uM MMV box compound.
[3] = target: T2, Cdk-related protein kinase 6 (Plasmodium falciparum, UniProt O77239); assay: Final concentrations were 1.5 uM ATP, 5 mM MnCl2, and 15 ug/ml PK6 in a buffer of 100 mM Tris-HCl (pH 7.5). 50 ug/mL MBP was provided as the substrate; 10 uM staurosporine was used as a control inhibitor. Incubation time was 3 hours and 40 minutes.The catalytic activity of each kinase was considered proportional to ATP consumed, as determined from measurements of residual [ATP] with the luciferase-based reagent Kinase-Glo (Promega) following incubation. Luminescence (proportional to residual [ATP]) was measured on the plate readers FLx800 (BioTek Instruments, Winooski, VT, USA) and MicroBeta2.
T2 sequence (O77239 whole entry): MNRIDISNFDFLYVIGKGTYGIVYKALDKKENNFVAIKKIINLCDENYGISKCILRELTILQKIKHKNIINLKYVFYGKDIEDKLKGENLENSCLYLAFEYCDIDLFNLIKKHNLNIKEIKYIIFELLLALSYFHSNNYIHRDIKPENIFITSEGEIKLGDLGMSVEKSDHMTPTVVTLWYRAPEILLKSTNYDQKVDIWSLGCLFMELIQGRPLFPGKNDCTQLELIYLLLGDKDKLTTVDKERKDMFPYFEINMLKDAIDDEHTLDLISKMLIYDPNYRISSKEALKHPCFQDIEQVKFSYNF

[4] = target: Lysine--tRNA ligase (Plasmodium falciparum (isolate 3D7), UniProt Q8IDJ8); assay: MMV: KRS recombinant Plasmodium falciparum Lysyl-tRNA-synthetase, assay with yeast tRNA, ATP, and lysine and 3 uM MMV malaria box compound, assay read out with kinase glo as % inhibition.
[5] = target: T3, Proline--tRNA ligase (Plasmodium falciparum (isolate 3D7), UniProt Q8I5R7); assay: MMV: ProRS recombinant Plasmodium falciparum Prolyl-tRNA-synthetase, assay with yeast tRNA, ATP, and proline and 3 uM MMV malaria box compound, assay read out with kinase glo as % inhibition.
T3 sequence (Q8I5R7 whole entry): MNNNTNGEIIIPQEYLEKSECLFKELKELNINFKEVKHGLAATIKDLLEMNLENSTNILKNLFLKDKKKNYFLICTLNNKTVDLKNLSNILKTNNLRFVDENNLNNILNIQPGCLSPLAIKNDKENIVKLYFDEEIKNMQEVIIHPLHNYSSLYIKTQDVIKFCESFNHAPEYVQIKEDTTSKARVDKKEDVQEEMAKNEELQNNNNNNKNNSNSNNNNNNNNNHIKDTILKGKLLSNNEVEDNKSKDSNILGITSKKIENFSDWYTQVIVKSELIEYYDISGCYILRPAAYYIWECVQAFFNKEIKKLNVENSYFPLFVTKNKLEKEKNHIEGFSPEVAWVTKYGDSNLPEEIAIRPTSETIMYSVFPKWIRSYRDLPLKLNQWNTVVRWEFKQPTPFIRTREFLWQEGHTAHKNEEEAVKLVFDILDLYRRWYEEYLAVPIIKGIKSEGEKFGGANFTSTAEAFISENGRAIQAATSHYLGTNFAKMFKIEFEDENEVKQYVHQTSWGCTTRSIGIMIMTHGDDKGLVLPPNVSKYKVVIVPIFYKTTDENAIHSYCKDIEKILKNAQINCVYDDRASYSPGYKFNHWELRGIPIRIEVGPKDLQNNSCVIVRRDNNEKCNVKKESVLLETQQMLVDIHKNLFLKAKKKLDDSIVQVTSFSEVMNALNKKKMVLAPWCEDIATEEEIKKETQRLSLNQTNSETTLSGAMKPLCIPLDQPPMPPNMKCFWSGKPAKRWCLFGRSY

[6] = target: T4, Putative uncharacterized protein pk7 (Plasmodium falciparum, UniProt O96214); assay: Final concentrations were 1 uM ATP, 2 mM DTT, 20 mM MgCl2, 2 mM MnCl2, 0.01% BSA, and 6 ug/ml PK7, in a buffer of 20 mM Tris-HCl (pH 7.5). The enzyme itself was the only substrate present (since autophosphorylation occurs); 100 uM 1NA-PP1 was used as a control inhibitor. Incubation time was 3 hours.
T4 sequence (O96214 whole entry): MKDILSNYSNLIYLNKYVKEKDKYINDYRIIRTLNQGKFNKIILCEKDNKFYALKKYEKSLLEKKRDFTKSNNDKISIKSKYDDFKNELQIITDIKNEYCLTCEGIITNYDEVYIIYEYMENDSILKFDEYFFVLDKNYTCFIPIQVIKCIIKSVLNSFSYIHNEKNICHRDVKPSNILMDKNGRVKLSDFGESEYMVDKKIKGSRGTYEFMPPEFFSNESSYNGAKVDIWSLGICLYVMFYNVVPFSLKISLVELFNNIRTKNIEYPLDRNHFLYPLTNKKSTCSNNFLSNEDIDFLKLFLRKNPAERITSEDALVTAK

[7] = target: T5, Calcium-dependent protein kinase 4 (Plasmodium falciparum (isolate 3D7), UniProt Q8IBS5); assay: MMV: CDPK4 Protein kinase inhibition assay using recombinant PfCDPK4, syntide2 peptide substrate, ATP and KinaseGlo to measure % inhibition at 1 uM MMV box compound.
T5 sequence (Q8IBS5 whole entry): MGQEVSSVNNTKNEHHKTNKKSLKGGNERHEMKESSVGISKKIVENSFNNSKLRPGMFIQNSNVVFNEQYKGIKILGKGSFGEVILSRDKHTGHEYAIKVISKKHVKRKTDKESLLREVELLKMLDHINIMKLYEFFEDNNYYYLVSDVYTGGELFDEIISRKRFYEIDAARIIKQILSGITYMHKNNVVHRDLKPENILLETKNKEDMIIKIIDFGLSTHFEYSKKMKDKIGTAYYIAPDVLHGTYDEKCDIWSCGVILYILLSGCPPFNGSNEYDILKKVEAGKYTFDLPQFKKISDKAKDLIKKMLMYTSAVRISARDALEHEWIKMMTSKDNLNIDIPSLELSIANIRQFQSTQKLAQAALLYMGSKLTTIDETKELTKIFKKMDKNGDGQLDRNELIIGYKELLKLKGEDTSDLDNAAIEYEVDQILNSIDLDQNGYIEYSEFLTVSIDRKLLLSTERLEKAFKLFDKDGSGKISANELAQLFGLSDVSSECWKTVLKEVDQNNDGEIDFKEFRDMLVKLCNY

Sequence of Calcium-dependent protein kinase 1 (P62344 whole entry): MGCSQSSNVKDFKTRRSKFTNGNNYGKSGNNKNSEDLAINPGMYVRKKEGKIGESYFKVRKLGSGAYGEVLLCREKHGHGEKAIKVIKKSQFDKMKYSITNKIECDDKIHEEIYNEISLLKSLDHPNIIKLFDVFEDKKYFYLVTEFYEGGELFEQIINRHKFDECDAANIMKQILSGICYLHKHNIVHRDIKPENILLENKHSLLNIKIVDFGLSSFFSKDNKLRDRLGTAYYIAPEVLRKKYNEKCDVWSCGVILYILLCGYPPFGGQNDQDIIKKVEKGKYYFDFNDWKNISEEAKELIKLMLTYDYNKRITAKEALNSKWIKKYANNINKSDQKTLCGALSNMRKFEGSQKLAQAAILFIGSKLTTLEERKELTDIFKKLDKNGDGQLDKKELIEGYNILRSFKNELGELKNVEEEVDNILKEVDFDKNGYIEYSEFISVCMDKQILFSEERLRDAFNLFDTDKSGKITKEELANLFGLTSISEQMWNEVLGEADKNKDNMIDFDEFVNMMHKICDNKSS
Sequence of Lysine--tRNA ligase (Q8IDJ8 whole entry): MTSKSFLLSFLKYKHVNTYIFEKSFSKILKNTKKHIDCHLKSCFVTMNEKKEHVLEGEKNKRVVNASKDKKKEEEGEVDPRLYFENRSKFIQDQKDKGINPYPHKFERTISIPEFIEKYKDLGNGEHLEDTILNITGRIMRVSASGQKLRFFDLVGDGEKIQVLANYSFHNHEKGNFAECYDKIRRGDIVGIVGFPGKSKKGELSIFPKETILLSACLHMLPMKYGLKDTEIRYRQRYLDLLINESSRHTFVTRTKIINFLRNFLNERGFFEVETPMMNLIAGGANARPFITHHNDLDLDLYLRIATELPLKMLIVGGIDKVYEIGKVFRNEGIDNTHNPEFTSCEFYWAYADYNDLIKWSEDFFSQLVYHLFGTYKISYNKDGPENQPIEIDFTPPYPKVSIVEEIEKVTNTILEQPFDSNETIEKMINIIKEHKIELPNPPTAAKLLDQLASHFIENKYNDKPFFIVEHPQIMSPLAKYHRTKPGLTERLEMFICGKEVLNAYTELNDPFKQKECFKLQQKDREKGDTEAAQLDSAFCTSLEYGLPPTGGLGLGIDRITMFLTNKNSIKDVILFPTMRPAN

| SMILES | IC50 [1] [nM] | IC50 [2] [nM] | IC50 [3] [nM] | IC50 [4] [nM] | IC50 [5] [nM] | IC50 [6] [nM] | IC50 [7] [nM] |
| --- | --- | --- | --- | --- | --- | --- | --- |
| CCOc1cc(CNC(C)C(O)c2ccccc2)cc(Cl)c1OCC (configuration not stated) | > 1000 | > 1000 | > 1000 | > 2500 | > 2500 | > 1000 | > 1000 |
| Cc1cc(NC(=O)c2cccc(C(F)(F)F)c2)n(-c2nc(-c3ccc4c(c3)OCO4)cs2)n1 | > 1000 | > 1000 | > 1000 | > 2500 | > 2500 | > 1000 | > 1000 |
| COc1cccc(C2(C)Nc3ccccc3-c3nc4ccccc4n32)c1 (configuration not stated) | > 1000 | > 1000 | > 1000 | > 2500 | > 2500 | > 1000 | > 1000 |
| CC(C)CNC(=O)c1c(N)n(CCc2ccccc2F)c2nc3ccccc3nc12 | > 1000 | > 1000 | > 1000 | > 2500 | > 2500 | > 1000 | > 1000 |
| Cc1cccc(-n2ncc3c(O)nc(-n4nc(C)cc4NC(=O)c4cc5ccccc5o4)nc32)c1 | > 1000 | > 1000 | > 1000 | > 2500 | > 2500 | > 1000 | > 1000 |
| COCCNCC(O)Cn1c2ccc(Cl)cc2c2cc(Cl)ccc21 (configuration not stated) | > 1000 | > 1000 | > 1000 | > 2500 | > 2500 | > 1000 | > 1000 |
| O=C(NC1CCN(Cc2ccccc2)CC1)c1cc(-c2ccncc2)nc2ccc(Cl)cc12 | > 1000 | > 1000 | > 1000 | > 2500 | > 2500 | > 1000 | > 1000 |
| COc1cc2cc(C(=O)Nc3ccccc3)c(N)nc2cc1OC | > 1000 | > 1000 | > 1000 | > 2500 | > 2500 | > 1000 | > 1000 |
| Oc1ccccc1CN1CCN(C(c2ccccc2)c2ccccc2)CC1 | > 1000 | > 1000 | > 1000 | > 2500 | > 2500 | > 1000 | > 1000 |
| CN1CCN(c2c3c(c(C#N)c4nc5ccccc5n24)CCC3)CC1 | > 1000 | > 1000 | > 1000 | > 2500 | > 2500 | > 1000 | > 1000 |
| CCOc1ccc(C2N(C)c3ccccc3N2C)cc1 | > 1000 | > 1000 | > 1000 | > 2500 | > 2500 | > 1000 | > 1000 |
| COc1nc(Nc2ccc(C(C)C)cc2)nc(OC)n1 | > 1000 | > 1000 | > 1000 | > 2500 | > 2500 | > 1000 | > 1000 |
| CCN(CC)CCNc1ncnc2c1[nH]c1ccc(Br)cc12 | > 1000 | > 1000 | > 1000 | > 2500 | > 2500 | > 1000 | > 1000 |
| CCOc1cccc(C(=O)Nc2ccc(-c3nc4ccccc4[nH]3)cc2)c1 | > 1000 | > 1000 | > 1000 | > 2500 | > 2500 | > 1000 | > 1000 |
| Clc1cc(Br)ccc1-c1ccc(CNCC2CCNCC2)o1 | > 1000 | > 1000 | > 1000 | > 2500 | > 2500 | > 1000 | > 1000 |
| O=C(Nc1ccc(N2CCN(Cc3ccccc3)CC2)cc1)c1cccs1 | > 1000 | > 1000 | > 1000 | > 2500 | > 2500 | > 1000 | > 1000 |
| O=C(Nc1ccc(N2CCCCC2)c(Cl)c1)c1ccc(Br)o1 | > 1000 | > 1000 | > 1000 | > 2500 | > 2500 | > 1000 | > 1000 |
| CC1CC(C)CN(C(=O)c2ccc(Cl)cc2Cl)C1 (configuration not stated) | > 1000 | > 1000 | > 1000 | > 2500 | > 2500 | > 1000 | > 1000 |
| OC(CNC1CCCC1)Cn1c2ccccc2c2ccccc21 (configuration not stated) | > 1000 | > 1000 | > 1000 | > 2500 | > 2500 | > 1000 | > 1000 |
| Clc1ccc2[nH]c3c(NCCCN4CCOCC4)ncnc3c2c1 | > 1000 | > 1000 | > 1000 | > 2500 | > 2500 | > 1000 | > 1000 |
| CCc1ccc(Nc2cc(C)nc3nc(C)nn23)cc1 | > 1000 | > 1000 | > 1000 | > 2500 | > 2500 | > 1000 | > 1000 |
